Experimental findings from ChEMBL document CHEMBL1201862, “PubChem BioAssay data set” (2004) are described below.

Some test systems named below: CAKI-1; SF-268; LOX IMVI; U-251; SK-MEL-2; SN12C; HL-60; MDA-N; MCF7; Malme-3M; CCRF-CEM; UACC-257; BT-549; MDA-MB-231; HOP-62; MDA-MB-435; SK-MEL-5; SNB-19; SF-539; SNB-75.
Holding throughout (assay): inhibition of tumour cell growth, NCI panel, 48 h

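Results reflect a 48-hour exposure of cells in 96-well plates to compound at five concentrations. The concentration for 50% growth inhibition is given as GI50.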 Active and inactive are the calls of the source. No stated cut-off is given here; in the data, active = GI50 up to about 1.1 µM and inactive = higher. Some results are limits rather than exact numbers.

On to `N/C(=N\O)N/N=C/c1cc(I)cc(I)c1O`, for which the GI50 was 57.1 µM (inactive) in the experiment on CAKI-1; 24.1 µM (inactive) in the experiment with SF-268; 25.4 µM (inactive) in the experiment on LOX IMVI; 34.8 µM (inactive) in the experiment with U-251; 54.8 µM (inactive) in the experiment on SK-MEL-2; 28.8 µM (inactive) with SN12C. The GI50 was 13.2 µM (inactive) in the experiment on HL-60; 82.6 µM (inactive) in the experiment on MDA-N; 10 µM (inactive) in the experiment on MCF7; 19.3 µM (inactive) with Malme-3M; 7.89 µM (inactive) in the experiment on CCRF-CEM; 52.2 µM (inactive) in the experiment on UACC-257. Further, the GI50 in the experiment on BT-549 is 47.4 µM (inactive); with MDA-MB-231 it was 54.8 µM (inactive); with HOP-62, 42.3 µM (inactive); in the experiment on MDA-MB-435 it was 69.5 µM (inactive); in the experiment on SK-MEL-5 it was 30.6 µM (inactive); in the experiment with SNB-19, 49.5 µM (inactive). In addition, in the experiment on SF-539, the GI50 is 29.7 µM (inactive).

Turning to `O=c1c2ncn(CCCl)c2n(-c2ccccc2)c(=S)n1-c1ccccc1`, the GI50 in the experiment on CAKI-1, in the experiment with SF-268, in the experiment with LOX IMVI, with U-251, in the experiment on SK-MEL-2 and in the experiment on SN12C was > 100 µM (inactive) throughout. Further, the GI50 in the experiment on HL-60, in the experiment on MDA-N, in the experiment with MCF7, in the experiment on Malme-3M, in the experiment with CCRF-CEM and with UACC-257 was > 100 µM (inactive) each time. For the same compound, the GI50 with BT-549, in the experiment with MDA-MB-231, with HOP-62, in the experiment on MDA-MB-435, in the experiment with SK-MEL-5 and in the experiment with SNB-19 was > 100 µM (inactive) throughout. The GI50 in the experiment on SF-539 is > 100 µM (inactive).

Regarding `CSc1nc(Cl)c2c(n1)Sc1nc3cc4c(cc3n1C2O)OCCO4` (stereo not drawn), the GI50 was 0.459 µM (active) in the experiment on SF-268; < 0.0162 µM (active) with LOX IMVI; 0.223 µM (active) in the experiment on U-251; 0.923 µM (active) in the experiment on SK-MEL-2; 0.526 µM (active) in the experiment on SN12C; 0.0308 µM (active) in the experiment on MDA-N. The GI50 is 0.053 µM (active) in the experiment with MCF7; 1.74 µM (inactive) with SNB-75; 0.847 µM (active) in the experiment with Malme-3M; 0.0246 µM (active) in the experiment with CCRF-CEM; 11.1 µM (inactive) in the experiment with UACC-257; 0.489 µM (active) in the experiment on BT-549. Also, the GI50 in the experiment on MDA-MB-231 is 0.321 µM (active); in the experiment on HOP-62, 0.419 µM (active); in the experiment with MDA-MB-435, 0.0158 µM (active); in the experiment on SK-MEL-5, 0.0703 µM (active); with SNB-19, 0.344 µM (active); in the experiment on SF-539 it was 0.0247 µM (active).

Consider `CC(C)C1CCC(=O)CC1CCCCC1CC(=O)CC1O[Si](C)(C)C(C)(C)C` (stereo not drawn), for which the GI50 in the experiment on CAKI-1 is 5.58 µM (inactive); in the experiment on SF-268, 2.54 µM (inactive); in the experiment with LOX IMVI, 2.84 µM (inactive); with U-251 it was 2.32 µM (inactive); in the experiment with SK-MEL-2 it was 6.44 µM (inactive); with SN12C, 5.5 µM (inactive). For the same compound, the GI50 with MDA-N is 4.16 µM (inactive); in the experiment with MCF7 it was 4.12 µM (inactive); in the experiment on SNB-75 it was 13.2 µM (inactive); in the experiment with Malme-3M it was 6.76 µM (inactive); in the experiment with CCRF-CEM it was 0.955 µM (active); with UACC-257, 6.4 µM (inactive). Besides, the GI50 is 4.25 µM (inactive) with BT-549; 14.6 µM (inactive) with MDA-MB-231; 7.06 µM (inactive) in the experiment with HOP-62; 2.95 µM (inactive) in the experiment with MDA-MB-435; 3.05 µM (inactive) in the experiment on SK-MEL-5; 3.98 µM (inactive) in the experiment with SNB-19. Besides, the GI50 in the experiment with SF-539 is 4.66 µM (inactive).

Take `CC1(C)OC(=O)C(Cc2ccccc2)(Cc2ccccc2)C(=O)O1`: the GI50 in the experiment with CAKI-1, in the experiment with SF-268, in the experiment on LOX IMVI, in the experiment with U-251, in the experiment with SK-MEL-2 and with SN12C was > 100 µM (inactive) each time. In addition, the GI50 with HL-60, in the experiment on MDA-N, in the experiment with MCF7, in the experiment with SNB-75, with Malme-3M and with CCRF-CEM was > 100 µM (inactive) in each case. Also, the GI50 is > 100 µM (inactive) in the experiment with UACC-257; > 100 µM (inactive) in the experiment with BT-549; > 100 µM (inactive) in the experiment with MDA-MB-231; > 100 µM (inactive) with HOP-62; > 100 µM (inactive) in the experiment on SK-MEL-5; > 10 µM (inactive) with SNB-19. Further, the GI50 with SF-539 is > 100 µM (inactive).

Consider `O=c1c(C(c2cnc3ccccc3c2)c2c(O)oc3ccccc3c2=O)c(O)oc2ccccc12`, for which the GI50 in the experiment on CAKI-1 is 41.3 µM (inactive); in the experiment on SF-268, 23.8 µM (inactive); in the experiment on LOX IMVI, 40.1 µM (inactive); with U-251 it was 29 µM (inactive); with SK-MEL-2, 47.2 µM (inactive); in the experiment with SN12C, 25.5 µM (inactive). In addition, the GI50 in the experiment with HL-60 was 37.8 µM (inactive); in the experiment with MDA-N, 21.4 µM (inactive); with SNB-75 it was 13.5 µM (inactive); in the experiment with Malme-3M, 35.2 µM (inactive); with CCRF-CEM, 55.1 µM (inactive); in the experiment with UACC-257 it was 37.3 µM (inactive). Also, the GI50 with BT-549 is 20.7 µM (inactive); with MDA-MB-231, 92.7 µM (inactive); with HOP-62, 46.5 µM (inactive); in the experiment on MDA-MB-435, 36.3 µM (inactive); with SK-MEL-5, 57.8 µM (inactive); with SNB-19, 23.2 µM (inactive).

As for `NC(Cc1ccc(OCc2ccccc2)cn1)C(=O)O` (stereo not drawn), the GI50 in the experiment with CAKI-1, in the experiment on SF-268, in the experiment on LOX IMVI, with U-251, in the experiment with SN12C and with HL-60 was > 100 µM (inactive) throughout. Besides, the GI50 in the experiment on MDA-N, with MCF7, in the experiment on Malme-3M, with CCRF-CEM, with UACC-257 and in the experiment with BT-549 was > 100 µM (inactive) in each case. Moreover, the GI50 with MDA-MB-231, with HOP-62, in the experiment with MDA-MB-435, with SK-MEL-5, in the experiment with SNB-19 and with SF-539 was > 100 µM (inactive) each time.

With `CN1C(=O)c2c(c3c4ccccc4n(C)c3c3c2c2ccccc2n3C)C1=O`, the GI50 in the experiment with CAKI-1, with LOX IMVI, in the experiment with U-251, with SK-MEL-2, in the experiment on SN12C and in the experiment with MDA-N was > 100 µM (inactive) each time. Further, the GI50 in the experiment with MCF7, in the experiment on SNB-75, in the experiment with Malme-3M, in the experiment with CCRF-CEM, with UACC-257 and with BT-549 was > 100 µM (inactive) in each case. The GI50 in the experiment on MDA-MB-231, in the experiment with HOP-62, in the experiment with MDA-MB-435, in the experiment on SK-MEL-5, with SNB-19 and in the experiment on SF-539 was > 100 µM (inactive) each time.

As for `CC1(C)CC(=O)C(Cc2ccccc2)(Cc2ccccc2)C(=O)C1`, the GI50 with CAKI-1, in the experiment on SF-268, with LOX IMVI, in the experiment on U-251, in the experiment on SK-MEL-2 and with SN12C was > 100 µM (inactive) in each case. Besides, the GI50 was > 100 µM (inactive) with HL-60; > 100 µM (inactive) in the experiment on MDA-N; > 100 µM (inactive) with MCF7; 39.8 µM (inactive) in the experiment with SNB-75; > 100 µM (inactive) in the experiment with Malme-3M; > 100 µM (inactive) in the experiment on CCRF-CEM. The GI50 in the experiment with UACC-257, with BT-549, in the experiment on MDA-MB-231, in the experiment with HOP-62, in the experiment with SK-MEL-5 and in the experiment on SNB-19 was > 100 µM (inactive) in each case. Also, the GI50 with SF-539 was > 100 µM (inactive).

`CCOC(=O)c1sc2nc(SC)nc(Nc3ccc4c(c3)OCO4)c2c1N`: the GI50 is > 100 µM (inactive) in the experiment with CAKI-1; > 100 µM (inactive) in the experiment on LOX IMVI; 32.9 µM (inactive) with U-251; 68.4 µM (inactive) in the experiment on SK-MEL-2; 59 µM (inactive) in the experiment with SN12C; > 100 µM (inactive) in the experiment on HL-60. The GI50 was > 100 µM (inactive) with MDA-N; 30.6 µM (inactive) in the experiment with MCF7; 29.6 µM (inactive) with Malme-3M; 50.7 µM (inactive) with CCRF-CEM; > 100 µM (inactive) in the experiment on UACC-257; 33.7 µM (inactive) with BT-549. Besides, the GI50 in the experiment on MDA-MB-231 is 26 µM (inactive); in the experiment on HOP-62, 28.8 µM (inactive); in the experiment on MDA-MB-435, > 100 µM (inactive); in the experiment on SK-MEL-5, 44.1 µM (inactive); in the experiment with SNB-19 it was 54.7 µM (inactive); in the experiment on SF-539, 32.9 µM (inactive).

`OC1OC(c2ccco2)C(F)(F)C(F)(F)C1(F)F` (stereo not drawn): the GI50 in the experiment with SF-268 is 71.3 µM (inactive); in the experiment on LOX IMVI, > 100 µM (inactive); with U-251 it was > 100 µM (inactive); in the experiment on SK-MEL-2, > 100 µM (inactive); in the experiment on SN12C, > 100 µM (inactive); in the experiment with HL-60 it was 34.4 µM (inactive). The GI50 with MDA-N is > 100 µM (inactive); with MCF7, > 100 µM (inactive); in the experiment with Malme-3M, 51.8 µM (inactive); in the experiment with CCRF-CEM it was 21.9 µM (inactive); in the experiment on UACC-257, > 100 µM (inactive); in the experiment with BT-549 it was > 100 µM (inactive). The GI50 with MDA-MB-231 is 65.6 µM (inactive); with HOP-62 it was > 100 µM (inactive); in the experiment with MDA-MB-435, 43.6 µM (inactive); with SK-MEL-5 it was 35.2 µM (inactive); in the experiment with SNB-19, > 100 µM (inactive); in the experiment with SF-539, > 100 µM (inactive).
